The source of these data is patent US20040141912A1, “Method for targeting chemical compounds to cells and pharmaceutical compositions used therein” (priority 2001, published 2004).

What all share (assay type): cell-based, human
One experiment concerns Jurkat cells. As to the kind of experiment: FACS analysis of DDC uptake by Jurkat cells induced to undergo apoptosis by staurosporine. Here is the method:
FIG. 8: Jurkat cells were induced to undergo apoptosis by treatment with staurosporine. Subsequently, these cells were treated with DDC. The relative change in DDC uptake by cells in early versus late stages of apoptosis, following induction and inhibition of the PLS system is presented. Shown are the percents of positive early or late apoptotic events (mean values), calculated from 3 independent experiments, and wherein the events (either early or late) observed in apoptotic culture are regarded as 100%. Selective accumulation of DDC in early, but not in late apoptotic cells was detected as a result of staurosporine treatment. Ca^2+-deprivation or rottlerin treatment were performed as described in FIG. 1.
The selective uptake of DDC by apoptotic cells is not dependent upon the type of apoptotic trigger. […] Staurosporine acts in an apoptotic pathway which is largely distinct from that of anti-Fas Ab. Jurkat cells were grown as described in Example 1, and were subsequently treated for 4 hours with 1 μM of staurosporine (S4400; Sigma, USA). After induction of apoptosis, cells were treated with DDC (250 μM) for 5 minutes, and were then co-stained with PI and subjected to FACS analysis. Non-treated cells served as control.
On the technique in general: In flow cytometry, cells or beads pass a laser one at a time.

Another experiment concerns activated platelets. Nature of the experiment: FACS analysis of DDC uptake by control and activated platelets. As for the experimental part: (§1) FIG. 6: Control and activated platelets were co-incubated with DDC (at a final concentration of 5 μM under three different conditions: no further treatment; Ca^2+-deprivation due to incubation with BAPTA and EGTA; and restoration of Ca^2+ following re-addition of Ca^2+ and calcium-ionophore A23187. Platelets were then subjected to FACS analysis.
(§2) The selective binding of DDC to activated platelets was determined using flow cytometric (FACS) analysis. Platelet rich plasma was obtained from healthy volunteers. 10^9 fresh platelets were centrifuged (5 minutes, 380×g), washed and re-suspended in Tyrode's buffer (137 mM NaCl; 2.8 mM KCl; 1 mM MgCl2, 12 mM NaHCO3; 0.4 mM Na2HPO4; 5.5 mM D-glucose and 10 mM Hepes pH 7.4; 0.35% BSA). Control platelets were kept on ice.
(§3) For activation, 200 μl of washed platelets were incubated with the calcium ionophore A23187 in the presence of 5 mM of CaCl2, at room temperature. Following incubation, platelets were centrifuged (2 min., 10^4 rpm) and re-suspended in 1 ml of Tyrode's buffer. Activated platelets were subsequently incubated with 5 μM of DDC for 5 minutes at room temperature, under three different conditions: (i). without any further treatment; (ii). under conditions of Ca^2+-deprivation, induced by 20 μM of BAPTA and 1 mM of EGTA (for 30 min. at 4° C.); (iii). upon restoration of Ca^2+, wherein platelet intracellular Ca^2+ levels were replenished by addition of 1 mM of CaCl2 and 2 μM of the calcium ionophore A23187. Non-activated platelets served as control. Platelets were subjected to flow cytometric (FACS) analysis using Becton-Dickinson cell sorter and CellQuest software. Excitation was at 360 nm and emission was measured at 530 nm.

Test in experiment [1]: as above
The note with it: DDC 5 μM, 5 min. Here is the method:
as §1, §2, §3

Molecules are shown by their SMILES. “Also recorded” adds a separate entry of the source.

`CN(C)c1cccc2c(S(=O)(=O)NC(CSSCC(NS(=O)(=O)c3cccc4c(N(C)C)cccc34)C(=O)O)C(=O)O)cccc12` (centres unmarked) [DDC]: the “Positive early apoptotic events for DDC (apoptotic culture regarded as 100%)” value in the experiment with Jurkat cells (control non-treated cells, mean of 3 experiments, DDC 250 μM 5 min) is 36%; in the experiment with Jurkat cells (staurosporine 1 μM 4 h apoptotic cells), 100%; with Jurkat cells (staurosporine-treated cells, Ca2+-deprivation), 14%; in the experiment with Jurkat cells (staurosporine-treated cells, rottlerin treatment) it was 30%. Further, in the experiment on activated platelets (BAPTA 20 μM + EGTA 1 mM, 30 min, 4° C.), the “DDC uptake (fluorescence intensity), activated platelets under Ca2+-deprivation” value is listed as “markedly reduced DDC uptake; also recorded: uptake of DDC was inhibited”. Also, the “DDC uptake (fluorescence intensity), activated platelets upon restoration of Ca2+” value with activated platelets (CaCl2 1 mM + A23187 2 μM after deprivation) is recorded as “completely restored; also recorded: fluorescence returned to the high values”. For the same compound, the “DDC uptake (fluorescence intensity), activated platelets” value in the experiment on activated platelets (activated with A23187 + 5 mM CaCl2, DDC 5 μM, 5 min) is “significant shift to higher fluorescence values; also recorded: marked enhancement of fluorescence as compared to controls; also recorded: marked shift to higher fluorescence levels; also recorded: marked shift to higher fluorescence intensity”. Moreover, in experiment [1], the “DDC uptake (fluorescence intensity), control non-activated platelets” value was “low levels of fluorescence intensity; also recorded: only minimal uptake of DDC”.
